row,Compound,melting point [°C]
1,CCN1CCN(C(=O)N[C@@H](C(=O)O)c2ccc(O)cc2)C(=O)C1=O,205
2,Cc1cc(C2(c3ccc(O)c(C)c3)CCCCC2)ccc1O,184 to 185
3,BrC(CCC(Br)C(Br)c1ccccc1)C(Br)c1ccccc1 (stereo not given),194
4,COC(=O)C1(C(=O)OC)Cc2cc(C)ccc2C(=O)O1,135 to 136
5,Cc1cccc2c1CCCC2,-23
6,O=[N+]([O-])c1ccc(Cc2ccccn2)c([N+](=O)[O-])c1,92
7,Cn1c(=O)c(C2=NNC(=O)C2=Cc2c(O)ccc3ccccc23)c(O)c2ccccc21,285
8,CCC1(CC2(c3cccc(Cl)c3)CO2)C(=O)c2ccccc2C1=O (stereo not given),61
9,CC#CC1(O)CCCCC1,48
10,CC1(O)CCC2C3CCC4=CC(=O)CCC4(C)C3(F)C(O)CC21C (stereo not given),270
11,c1ccc2c(c1)CCc1ccccc1CC2,109
12,Cc1oc(-c2ccccc2)nc1CCO,72 to 75
13,CNCc1ccc(-c2ccccc2)nc1,39 to 41.5
14,Cc1cc(O)c(C2CC3CCC2(C)C3(C)C)cc1C (stereo not given),95
15,CN(C)c1ccc(C=C2C=C(c3ccccc3)OC(c3ccccc3)=C2)cc1,181
16,CCOC(=O)c1cccc(N)c1,29
17,FC(F)(F)c1ccc(-n2ccnc2)cc1,71 to 73
18,NC(=O)CCCNC(=C1C=C(F)C=CC1=O)c1ccc(Cl)cc1,134
19,COc1ccc(C=C2N=C(c3ccccc3)OC2=O)cc1,151 to 152
20,O=C(O)c1ccc(Oc2ccccc2)cc1,162
21,CCOC(=O)C(C#N)=NNc1ccc(C(=O)O)cc1,219
22,O=C1OC(=O)c2c(F)c(F)c(F)c(F)c21,95
23,CN(C)CCC(O)(c1ccccc1)c1ccccc1Cl (stereo not given),120

row,Compound,melting point [°C]
1,c1ccc(C2=NC(c3ccccc3)C(c3ccccc3)N2)cc1 (stereo not given),134
2,Cc1ccc(-c2ccc(C=CC(=O)c3ccco3)o2)cc1,110 to 111
3,N#Cc1ccnc2ccccc12,104
4,O=C(O)c1ccc2c(c1)C(=O)c1cc(C(=O)O)ccc1-2,407
5,NNC(=O)C(=O)NC1CCCCC1,238
6,Nc1ccc(-c2cnco2)cc1,150 to 151
7,COC(=O)c1cc2ccsc2[nH]1,127 to 129
8,CC1CCS(=O)(=O)C1 (stereo not given),1
9,CCCCCCC(=O)OCCCCC,-50
10,CCCCCSc1ncccc1C(=O)O,118 to 120
11,N#Cc1c(C(F)(F)F)cc(Nc2cccc([N+](=O)[O-])c2)nc1Cl,276 to 279
12,CSc1nc(N)c2ccccc2n1,233 to 235
13,Clc1ncc(Br)c(Cl)n1,30
14,CC(=Cc1ccccc1)C(=O)O,80
15,CNCc1ccccc1,-24
16,FC(F)(F)C(F)(F)C(F)(F)C(F)(F)C(F)(F)F,-100
17,CSc1c(C#N)c(N)nc2c(/N=N/c3ccc(C(=O)O)cc3)c(N)nn12,305 to 307
18,OCC1OC(O)C(O)C1O (stereo not given),88 to 92
19,CCN(CC)C(=O)COC(=O)c1ccccc1,72.5
20,COc1ccc(C(=O)CCC(=O)O)cc1F,171
21,CC(C)NC(=O)CC#N,62 to 65
22,Cc1cc(N)on1,83
23,COC1CC1,-119

row,Compound,melting point [°C]
1,NC1(P(=O)(O)O)CCCC1,274 to 276
2,N#Cc1ccc(OCCN2CCOCC2)cc1,87 to 90
3,Cc1ccc(S(=O)(=O)c2ncsc2SCc2ccc(Cl)cc2)cc1,151 to 153
4,Cc1onc(-c2ccccc2)c1I,104 to 105
5,CC1=NOC(=O)C1=NNc1ccccc1Cl,168
6,CC(=O)Nc1ccc([N+](=O)[O-])c(Br)c1,145
7,Cc1cc(-c2ccccc2)n2nc(C(F)(F)F)nc2n1,89
8,N#CN=C(Oc1ccccc1)Oc1ccccc1,157
9,O=C(O)c1ccc2nsnc2c1,229 to 231
10,CC[C@@H]1CCC[C@H]1CC (relative stereo),-95
11,c1ccc2c(N=Nc3cccc4ccccc34)cccc2c1,190
12,O=C1OC(C2COC3(CCCCC3)O2)C2OC3(CCCCC3)OC12 (stereo not given),110 to 113
13,CC(C)OC(=O)C1=C2c3ncccc3ON2C(Cl)C(Cl)C1Cl (stereo not given),98
14,CN(C)CCO,-59
15,CCOC(=O)c1c(-c2ccc(Br)cc2)csc1N,120 to 122
16,CN(C(=S)C(=O)c1ccccc1)c1ccccc1,109
17,CCCCCCCCCCCCCC(=O)Oc1ccc(N=Cc2ccc(N(C)C)cc2)cc1,106
18,N#Cc1c(N)oc(-c2ccco2)c1-c1ccco1,183 to 185
19,COc1cc2c(cc1OC)C1(O)C(=O)c3ccc4c(c3OC1CO2)C=CC(C)(C)O4 (stereo not given),198
20,COc1cc2c(cc1OC)C(c1ccc(O)cc1)N(C(C)=O)CC2 (stereo not given),145 to 147
21,Cc1ccc(C(c2ccc(C)o2)c2ccccc2N=C=S)o1,65
22,O=C(O)CCCCCCCc1ccccc1,28
23,N#CCCn1ccnc1-c1ccccc1,99.5 to 102

row,Compound,melting point [°C]
1,Ic1ccc(-c2ccno2)cc1,139 to 140
2,N#CCC(=O)c1ccc(OC(F)(F)F)cc1,82 to 84
3,O=C(O)CCCC1CCCCC1,31
4,O=C(O)c1csc2ccc(Br)cc12,284 to 287
5,O=C1Nc2ccccc2C=NC2CCCCC2N=Cc2ccccc2NC(=O)O1 (stereo not given),253 to 255
6,NC(=O)OCC(O)COc1ccc(Cl)cc1 (stereo not given),90
7,C[C@]12CC(=O)C[C@@]1(C)CC(=O)C2,228 to 230
8,O=C1OC(c2ccc(O)c3ccccc23)(c2ccc(O)c3ccccc23)c2ccccc21,254
9,Nc1ccc(N2CCOCC2)c(Cl)c1,102 to 104
10,COC(=O)[C@@H]1CCCN1C(=O)COC(=O)c1ccccc1,72.5
11,O=Cc1ccc(N2CCOCC2)nc1,88 to 89
12,CN1C(=O)Cc2cc(Br)ccc21,132 to 133
13,CCN(CC)c1ccc(C=C2SC(=S)NC2=O)cc1,163
14,C=C/C=C(C)/C=N/Nc1ccc([N+](=O)[O-])cc1[N+](=O)[O-],171
15,CC1=NN(c2ccccc2)C(=O)C1=C(Br)C1C(=O)N(c2ccccc2)N=C1C (stereo not given),218 to 219
16,COC(=O)C1CCC(C)(C(O)(c2ccccc2)c2ccccc2)OC1(C)C (stereo not given),91
17,CCOC(=O)c1c[nH]c2c(OC(F)(F)F)cccc2c1=O,235 to 240
18,N#CC1(C(=O)c2ccccc2)C(c2ccc(F)cc2)NC(=O)NC1c1ccc(F)cc1 (stereo not given),226 to 227
19,O=C1NCCCN1,265
20,CCN(CC)C(=O)n1cnc(S(=O)(=O)c2c(C)cc(C)cc2C)n1,115
21,CN(C)C(=S)SSC(=S)N(C)C,156
